Measured values published in patent US20240150334A1, “HSD17B13 INHIBITORS AND/OR DEGRADERS” (Pfizer Inc., priority 2022, published 2024).
Where a name gives a salt, the structure may show the parent alone.

What follows are molecules tested against wild type human HSD17B13 (Homo sapiens (Human), UniProt Q7Z5P4) (assay: HEK_Beta-Est LCMS_IC50_Tekcel, whole-cell HEK-HSD17B13 inhibition assay, estrone production by LCMS). Settings: geometric mean, HEK cells stably expressing wild type human HSD17B13, 25 μM FAC beta-estradiol, read-out: HEK_Beta-Est LCMS_IC50—Tekcel GMean IC50.
Assay type: cell-based
Protocol: HEK_Beta-Est LCMS_IC50_Tekcel
Inhibition potency of test compounds was determined using a whole-cell HEK-HSD17B13 inhibition assay, utilizing a LCMS readout.
HSD17B13 uses the oxidized form of nicotinamide adenine dinucleotide (NAD+) as a cofactor during metabolism of beta-estradiol (substrate), converting NAD+ to the reduced form (NADH) and beta-estradiol to its product (estrone). Estrone production is quantified by LCMS, and used as a measure of HSD17B13 enzyme activity.
([…]: 5% CO2). […] Growth media was then removed from the cell plates and replaced with 10 μL of 2×FAC test compound, and incubated for 1 hour (with lid) at 37° C. […] The reaction was incubated for 2 hours (with lid) at 37° C. […] Amount of product (estrone) was then quantified by LCMS. Data expressed as product area ratio (PAR) were then normalized to control wells using Activity Base (IDBS). Zero percent effect (ZPE) was defined as PAR generated from uninhibited HSD17B13 (vehicle control).

Chain of wild type human HSD17B13 (Q7Z5P4 20-300): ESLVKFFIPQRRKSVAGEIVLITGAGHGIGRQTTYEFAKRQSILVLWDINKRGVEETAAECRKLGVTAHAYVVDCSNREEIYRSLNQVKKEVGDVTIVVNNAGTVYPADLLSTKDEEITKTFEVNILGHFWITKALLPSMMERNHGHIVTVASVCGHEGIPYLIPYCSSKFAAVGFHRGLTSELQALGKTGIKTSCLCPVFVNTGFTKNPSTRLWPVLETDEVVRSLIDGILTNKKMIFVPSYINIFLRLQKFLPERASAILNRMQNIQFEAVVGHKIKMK

O=C(NC[C@]12CC[C@@](c3nc(-c4ncc(C(F)(F)F)cn4)no3)(CC1)CC2)c1cc(F)c(O)c(F)c1F [Example 3, 2,3,5-Trifluoro-4-hydroxy-N-[(4-{3-[5-(trifluoromethyl)pyrimidin-2-yl]-1,2,4-oxadiazol-5-yl}bicyclo[2.2.2]octan-1-yl)methyl]benzamide] and O=C(NC[C@]12CC[C@@](n3cc4ccc(-c5ncccn5)cc4n3)(CC1)CC2)c1cc(F)c(O)c(F)c1F [Example 7, 2,3,5-Trifluoro-4-hydroxy-N-({4-[6-(pyrimidin-2-yl)-2H-indazol-2-yl]bicyclo[2.2.2]octan-1-yl}methyl)benzamide] are within 1.5-fold of each other in IC50: 130 nM for the first, 180 nM for the second.

Going from O=C(NC[C@H]1CC[C@H](n2cc3ccc(-c4cnn(CC(F)F)c4)cc3n2)CC1)c1cc(F)c(O)c(F)c1 [Example 10, N-{[(1r,4r)-4-{6-[1-(2,2-Difluoroethyl)-1H-pyrazol-4-yl]-2H-indazol-2-yl}cyclohexyl]methyl}-3,5-difluoro-4-hydroxybenzamide, trifluoroacetate salt] to O=C(NC[C@H]1CC[C@H](n2cc3ccc(-c4ncc(C(F)F)s4)cc3n2)CC1)c1cc(F)c(O)c(F)c1 [Example 91, N-{[(1r,4r)-4-{6-[5-(difluoromethyl)-1,3-thiazol-2-yl]-2H-indazol-2-yl}cyclohexyl]methyl}-3,5-difluoro-4-hydroxybenzamide], the IC50 rises from 120 nM to 280 nM (2.3-fold).

O=C(NC[C@H]1CC[C@H](n2cc3ccc(-n4cc(C(F)(F)F)cn4)cc3n2)CC1)c1cc(F)c(O)c(F)c1F [Example 11, 2,3,5-Trifluoro-4-hydroxy-N-{[(1r,4r)-4-{6-[4-(trifluoromethyl)-1H-pyrazol-1-yl]-2H-indazol-2-yl}cyclohexyl]methyl}benzamide, trifluoroacetate salt] and O=C(NC[C@H]1CC[C@H](n2cc3cc(Cl)ccc3n2)CC1)c1cc(F)c(O)c(F)c1F [Example 26, N-{[(1r,4r)-4-(5-chloro-2H-indazol-2-yl)cyclohexyl]methyl}-2,3,5-trifluoro-4-hydroxybenzamide] are within 1.5-fold of each other in IC50: 240 nM for the first, 190 nM for the second.

Cn1cc(-c2ccc3nc([C@H]4CC[C@H](CNC(=O)c5cc(F)c(O)c(F)c5F)CC4)cn3c2)cn1 [Example 29, 2,3,5-trifluoro-4-hydroxy-N-({(1r,4r)-4-[6-(1-methyl-1H-pyrazol-4-yl)imidazo[1,2-a]pyridin-2-yl]cyclohexyl}methyl)benzamide] and Cn1cc(-c2ccn3cc([C@H]4CC[C@H](CNC(=O)c5cc(F)c(O)c(F)c5F)CC4)nc3c2)cn1 [Example 30, 2,3,5-trifluoro-4-hydroxy-N-({(1r,4r)-4-[7-(1-methyl-1H-pyrazol-4-yl)imidazo[1,2-a]pyridin-2-yl]cyclohexyl}methyl) benzamide] are within 1.5-fold of each other in IC50: 350 nM for the first, 360 nM for the second.

Going from O=C(NC[C@H]1CC[C@H](n2cc3cc(OCc4cccc(C(F)(F)F)n4)ncc3n2)CC1)c1cc(F)c(O)c(F)c1 [Example 33, 3,5-difluoro-4-hydroxy-N-{[(1r,4r)-4-(5-{[6-(trifluoromethyl)pyridin-2-yl]methoxy}-2H-pyrazolo[3,4-c]pyridin-2-yl)cyclohexyl]methyl}benzamide] to O=C(NC[C@H]1CC[C@H](n2cc3ccc(-c4cnc(C(F)(F)F)cn4)cc3n2)CC1)c1cc(F)c(O)c(F)c1 [Example 78, 3,5-difluoro-4-hydroxy-N-{[(1r,4r)-4-{6-[5-(trifluoromethyl)pyrazin-2-yl]-2H-indazol-2-yl}cyclohexyl]methyl} benzamide], the IC50 falls from 380 nM to 190 nM (2-fold).

Compared with Cn1cc(-c2ccc3cn([C@H]4CC[C@H](CNC(=O)c5cc(F)c(O)c(F)c5)CC4)nc3c2)nn1 [Example 79, 3,5-difluoro-4-hydroxy-N-({(1r,4r)-4-[6-(1-methyl-1H-1,2,3-triazol-4-yl)-2H-indazol-2-yl]cyclohexyl}methyl) benzamide], Cn1ncc(-c2ccc3cn([C@H]4CC[C@H](CNC(=O)c5cc(F)c(O)c(F)c5)CC4)nc3c2)n1 [Example 92, 3,5-difluoro-4-hydroxy-N-({(1r,4r)-4-[6-(2-methyl-2H-1,2,3-triazol-4-yl)-2H-indazol-2-yl]cyclohexyl}methyl)benzamide] is 2.8-fold lower in IC50: 370 nM for the first, 130 nM for the second.

First: O=C(NC[C@H]1CC[C@H](n2cc3ccc(-c4cnn5ccccc45)cc3n2)CC1)c1cc(F)c(O)c(F)c1 [Example 80, 3,5-difluoro-4-hydroxy-N-({(1r,4r)-4-[6-(pyrazolo[1,5-a]pyridin-3-yl)-2H-indazol-2-yl]cyclohexyl}methyl) benzamide, trifuoroacetate salt]
Second: O=C(NC[C@H]1CC[C@H](n2cc3ccc(-c4ccn5nccc5c4)cc3n2)CC1)c1cc(F)c(O)c(F)c1 [Example 89, 3,5-difluoro-4-hydroxy-N-({(1r,4r)-4-[6-(pyrazolo[1,5-a]pyridin-5-yl)-2H-indazol-2-yl]cyclohexyl}methyl) benzamide, trifluoroacetate salt]
The IC50 of the first is 1.5-fold higher: 200 nM for the first, 130 nM for the second.

Cc1cc(-c2ccc3cn([C@H]4CC[C@H](CNC(=O)c5cc(F)c(O)c(F)c5)CC4)nc3c2)ccn1 [Example 81, 3,5-difluoro-4-hydroxy-N-({(1r,4r)-4-[6-(2-methylpyridin-4-yl)-2H-indazol-2-yl]cyclohexyl}methyl) benzamide, trifluoroacetate salt] and Cc1cc(-c2ccc3cn([C@H]4CC[C@H](CNC(=O)c5cc(F)c(O)c(F)c5)CC4)nc3c2)ncn1 [Example 87, 3,5-difluoro-4-hydroxy-N-({(1r,4r)-4-[6-(6-methylpyrimidin-4-yl)-2H-indazol-2-yl]cyclohexyl}methyl) benzamide] are within 1.5-fold of each other in IC50: 120 nM for the first, 130 nM for the second.

O=C(NC[C@H]1CC[C@H](n2cc3ccc(-c4ncns4)cc3n2)CC1)c1cc(F)c(O)c(F)c1 [Example 82, 3,5-difluoro-4-hydroxy-N-({(1r,4r)-4-[6-(1,2,4-thiadiazol-5-yl)-2H-indazol-2-yl]cyclohexyl}methyl) benzamide] and O=C(NC[C@H]1CC[C@H](n2cc3ccc(-c4ccns4)cc3n2)CC1)c1cc(F)c(O)c(F)c1 [Example 83, 3,5-difluoro-4-hydroxy-N-({(1r,4r)-4-[6-(1,2-thiazol-5-yl)-2H-indazol-2-yl]cyclohexyl}methyl) benzamide] are within 1.5-fold of each other in IC50: 120 nM for the first, 94 nM for the second.

Compared with O=C(NC[C@H]1CC[C@H](n2cc3ccc(-c4csc5cncn45)cc3n2)CC1)c1cc(F)c(O)c(F)c1 [Example 84, 3,5-difluoro-4-hydroxy-N-({(1r,4r)-4-[6-(imidazo[5,1-b][1,3]thiazol-3-yl)-2H-indazol-2-yl]cyclohexyl}methyl) benzamide, trifluoroacetate salt], O=C(NC[C@H]1CC[C@H](n2cc3ccc(-c4cncs4)cc3n2)CC1)c1cc(F)c(O)c(F)c1 [Example 96, 3,5-difluoro-4-hydroxy-N-({(1r,4r)-[6-(1,3-thiazol-5-yl)-2H-indazol-2-yl]cyclohexyl}methyl)benzamide] is 4.6-fold lower in IC50: 390 nM for the first, 85 nM for the second.

O=C(NC[C@H]1CC[C@H](n2cc3ccc(-c4csc(C5CC5)n4)cc3n2)CC1)c1cc(F)c(O)c(F)c1 [Example 85, N-({(1r,4r)-4-[6-(2-cyclopropyl-1,3-thiazol-4-yl)-2H-indazol-2-yl]cyclohexyl}methyl)-3,5-difluoro-4-hydroxybenzamide] and Cc1nc(-c2ccc3cn([C@H]4CC[C@H](CNC(=O)c5cc(F)c(O)c(F)c5)CC4)nc3c2)cs1 [Example 94, 3,5-difluoro-4-hydroxy-N-({(1r,4r)-4-[6-(2-methyl-1,3-thiazol-4-yl)-2H-indazol-2-yl]cyclohexyl}methyl) benzamide] are within 1.5-fold of each other in IC50: 180 nM for the first, 140 nM for the second.

COc1nc(-c2ccc3cn([C@H]4CC[C@H](CNC(=O)c5cc(F)c(O)c(F)c5)CC4)nc3c2)nn1C [Example 86, 3,5-difluoro-4-hydroxy-N-({(1r,4r)-4-[6-(5-methoxy-1-methyl-1H-1,2,4-triazol-3-yl)-2H-indazol-2-yl]cyclohexyl}methyl) benzamide] and COc1ccnc(-c2ccc3cn([C@H]4CC[C@H](CNC(=O)c5cc(F)c(O)c(F)c5)CC4)nc3c2)n1 [Example 95, 3,5-difluoro-4-hydroxy-N-({(1r,4r)-4-[6-(4-methoxypyrimidin-2-yl)-2H-indazol-2-yl]cyclohexyl}methyl)benzamide] are within 1.5-fold of each other in IC50: 270 nM for the first, 240 nM for the second.

Cc1ncc(-c2ccc3cn([C@H]4CC[C@H](CNC(=O)c5cc(F)c(O)c(F)c5)CC4)nc3c2)s1 [Example 88, 3,5-difluoro-4-hydroxy-N-({(1r,4r)-4-[6-(2-methyl-1,3-thiazol-5-yl)-2H-indazol-2-yl]cyclohexyl}methyl)benzamide] and Cc1cncc(-c2ccc3cn([C@H]4CC[C@H](CNC(=O)c5cc(F)c(O)c(F)c5)CC4)nc3c2)c1 [Example 90, 3,5-difluoro-4-hydroxy-N-({(1r,4r)-4-[6-(5-methylpyridin-3-yl)-2H-indazol-2-yl]cyclohexyl}methyl) benzamide, trifluoroacetate salt] are within 1.5-fold of each other in IC50: 170 nM for the first, 200 nM for the second.

Compared with O=C(NC[C@H]1CC[C@H](n2cc3ccc(-c4cc(C5CC5)ncn4)cc3n2)CC1)c1cc(F)c(O)c(F)c1 [Example 93, N-({(1r,4r)-4-[6-(6-cyclopropylpyrimidin-4-yl)-2H-indazol-2-yl]cyclohexyl}methyl)-3,5-difluoro-4-hydroxybenzamide], O=C(NC[C@H]1CC[C@H](n2cc3ccc(-c4ncc5cc[nH]c5n4)cc3n2)CC1)c1cc(F)c(O)c(F)c1 [Example 97, 3,5-difluoro-4-hydroxy-N-({(1r,4r)-4-[6-(7H-pyrrolo[2,3-d]pyrimidin-2-yl)-2H-indazol-2-yl]cyclohexyl}methyl) benzamide] is 1.7-fold higher in IC50: 180 nM for the first, 300 nM for the second. The first is the more potent here.
